Data reported in patent US20130344026A1, “Dimeric Smac Mimetics” (priority 2009, published 2013).
Like-named read-outs stand apart in the source and are kept apart here.

Test system: PANC-1 cells
Experiment: cell viability assay in PANC-1 cells (compound alone, + 100 ng/ml TNFa, + 300 ng/ml TRAIL)
Assay type: cell-based
[1] = Homo sapiens, PANC-1, compound alone, Tables 6-10, read-out: IC50 (μM) in cell viability assay in PANC-1 cells: Compound alone
[2] = with 100 ng/ml TNFa, Tables 6-10, read-out: IC50 (μM) in cell viability assay in PANC-1 cells: Compound + 100 ng/ml TNFa
[3] = with 300 ng/ml TRAIL, Tables 6-10, read-out: IC50 (μM) in cell viability assay in PANC-1 cells: Compound + 300 ng/ml TRAIL
[4] = compound alone, Tables 6-10, read-out: IC50 (μM) in cell viability assay in PANC-1 cells: Compound alone
[5] = Homo sapiens, PANC-1, compound alone, Tables 15-18, read-out: IC50 (uM) in cell viability assay in PANC-1 cells: Cmpnd alone
[6] = with 100 ng/ml TNFa, Tables 15-18, read-out: IC50 (uM) in cell viability assay in PANC-1 cells: Cmpnd + 100 ng/ml TNFa
[7] = with 300 ng/ml TRAIL, Tables 15-18, read-out: IC50 (uM) in cell viability assay in PANC-1 cells: Cmpnd + 300 ng/ml TRAIL
[8] = Homo sapiens, PANC-1 cells, compound alone, read-out: IC50 (uM) in cell viability assay in PANC-1 cells, Cmpnd alone
[9] = PANC-1 cells, + 100 ng/ml TNFa, read-out: IC50 (uM) in cell viability assay in PANC-1 cells, Cmpnd + 100 ng/ml TNFa
[10] = PANC-1 cells, + 300 ng/ml TRAIL, read-out: IC50 (uM) in cell viability assay in PANC-1 cells, Cmpnd + 300 ng/ml TRAIL

| SMILES | IC50 [1] [µM] | IC50 [2] [µM] | IC50 [3] [µM] | further results |
| --- | --- | --- | --- | --- |
| CN[C@@H](C)C(=O)NC(C(=O)N1C[C@@H](NC(=O)c2cccc(C(=O)N[C@H]3CC(C(=O)N[C@@H]4CC5CCC4(C)C5(C)C)N(C(=O)[C@@H](NC(=O)[C@H](C)NC)C(C)(C)C)C3)c2)CC1C(=O)N[C@@H]1CC2CCC1(C)C2(C)C)C(C)(C)C (stereo partly shown) [Compound 40] | > 1 | 0.555 | 0.517 |  |
| CN[C@@H](C)C(=O)N[C@H](C(=O)N1C[C@@H](NC(=O)c2cccc(C(=O)N[C@H]3C[C@@H](C(=O)NC4CCOc5ccccc54)N(C(=O)[C@@H](NC(=O)[C@H](C)NC)C(C)(C)C)C3)c2)C[C@H]1C(=O)NC1CCOc2ccccc21)C(C)(C)C (single isomer, unassigned) [Compound 65] | > 1 | 0.265 | 0.328 |  |
| CN[C@@H](C)C(=O)N[C@H](C(=O)N[C@@H](CCNC(=O)c1cccc(C(=O)N[C@H]2C[C@@H](C(=O)N[C@@H]3CCCc4ccccc43)N(C(=O)[C@@H](NC(=O)[C@H](C)NC)C(C)(C)C)C2)c1)C(=O)N[C@H](C)c1ccccc1)C(C)(C)C [Compound 174] | > 1 | 0.0069 | 0.0107 |  |
| CN[C@@H](C)C(=O)N[C@@H](CCCCCC[C@H](NC(=O)[C@H](C)NC)C(=O)N1Cc2ccccc2C[C@H]1C(=O)N[C@H](C)c1ccccc1)C(=O)N1Cc2ccccc2C[C@H]1C(=O)N[C@H](C)c1ccccc1 [Compound 96] | > 1 | 0.211 | 0.417 |  |
| CN[C@@H](C)C(=O)N[C@H](C(=O)N1C[C@@H](NC(=O)c2cccc(C(=O)N[C@H]3C[C@@H](C(=O)NC4CCCc5cc(F)ccc54)N(C(=O)[C@@H](NC(=O)[C@H](C)NC)C(C)(C)C)C3)c2)C[C@H]1C(=O)NC1CCCc2cc(F)ccc21)C(C)(C)C (single isomer, unassigned) [Compound 72] | > 1 | 0.0018 | 0.0033 |  |
| CN[C@@H](C)C(=O)N[C@H](C(=O)N[C@@H](CCNC(=O)c1cccc(C(=O)N[C@H]2C[C@@H](C(=O)N[C@@H]3CCCc4ccccc43)N(C(=O)[C@@H](NC(=O)[C@H](C)NC)C3CCCCC3)C2)c1)C(=O)N[C@H](C)C(C)C)C(C)C [Compound 181] | > 1 | 0.037 | 0.072 |  |
| CN[C@@H](C)C(=O)N[C@H](C(=O)N1CCC[C@H]1C(=O)N[C@H]1c2ccccc2C[C@@H]1NC(=O)c1ccc(C(=O)N[C@H]2Cc3ccccc3[C@@H]2NC(=O)[C@@H]2CCCN2C(=O)[C@@H](NC(=O)[C@H](C)NC)C(C)(C)C)cc1)C(C)(C)C [Compound 124] | > 1 | 0.061 | 0.066 |  |
| CN[C@@H](C)C(=O)N[C@H](C(=O)N1CCC[C@H]1C(=O)N[C@H]1c2ccccc2C[C@H]1OCCCCCCO[C@@H]1Cc2ccccc2[C@@H]1NC(=O)[C@@H]1CCCN1C(=O)[C@@H](NC(=O)[C@H](C)NC)C(C)(C)C)C(C)(C)C [Compound 120] | > 1 |  |  |  |
| CN[C@@H](C)C(=O)N[C@H](C(=O)N1C[C@@H](NC(=O)c2cccc(C(=O)N[C@H]3C[C@@H](C(=O)N[C@H](C)C4OCCCO4)N(C(=O)[C@@H](NC(=O)[C@H](C)NC)C(C)(C)C)C3)c2)C[C@H]1C(=O)N[C@H](C)C1OCCCO1)C(C)(C)C [Compound 53] | > 1 | 0.466 | 0.227 |  |
| CCCC[C@@H](C)NC(=O)c1cc(C(=O)N[C@H]2C[C@@H](C(=O)N[C@@H]3CCCc4ccccc43)N(C(=O)[C@@H](NC(=O)[C@H](C)NC)C(C)(C)C)C2)cc(C(=O)N[C@H]2C[C@@H](C(=O)N[C@@H]3CCCc4ccccc43)N(C(=O)[C@@H](NC(=O)[C@H](C)NC)C(C)(C)C)C2)c1 [Compound 128] | > 1 | 0.01 | 0.014 |  |
| CN[C@@H](C)C(=O)N[C@H](C(=O)N1C[C@@H](NC(=O)c2cccc(C(=O)N[C@H]3C[C@@H](C(=O)NC4CCSc5ccccc54)N(C(=O)[C@@H](NC(=O)[C@H](C)NC)C(C)(C)C)C3)c2)C[C@H]1C(=O)NC1CCSc2ccccc21)C(C)(C)C (single isomer, unassigned) [Compound 68] |  | 0.029 | 0.019 | IC50 [4]: > 1 µM |
| CN[C@@H](C)C(=O)N[C@@H](CCCCCC[C@H](NC(=O)[C@H](C)NC)C(=O)N1CCC[C@H]1CNC(=O)c1c(OC)cccc1OC)C(=O)N1CCC[C@H]1CNC(=O)c1c(OC)cccc1OC [Compound 35] | > 1 | > 1 | > 1 |  |
| CN[C@@H](C)C(=O)N[C@@H](CCNC(=O)NCC[C@H](NC(=O)[C@H](C)NC)C(=O)N1CCC[C@H]1C(=O)N[C@@H]1CCCc2ccccc21)C(=O)N1CCC[C@H]1C(=O)N[C@@H]1CCCc2ccccc21 [Compound P2-39] |  |  |  | IC50 [5]: > 1 µM; IC50 [6]: 0.349 µM; IC50 [7]: 0.225 µM |
| CN[C@@H](C)C(=O)N[C@@H](CC(=O)NCCNC(=O)C[C@H](NC(=O)[C@H](C)NC)C(=O)N1CCC[C@H]1C(=O)N[C@@H]1CCCc2ccccc21)C(=O)N1CCC[C@H]1C(=O)N[C@@H]1CCCc2ccccc21 [Compound P2-40] |  |  |  | IC50 [5]: > 1 µM; IC50 [6]: 0.19 µM; IC50 [7]: 0.25 µM |
| CN[C@@H](C)C(=O)N[C@H](C(=O)N1C[C@@H](NC(=O)C23CC4CC(C2)CC(C(=O)N[C@H]2C[C@@H](C(=O)N[C@H](C)c5ccccc5)N(C(=O)[C@@H](NC(=O)[C@H](C)NC)C(C)(C)C)C2)(C4)C3)C[C@H]1C(=O)N[C@H](C)c1ccccc1)C(C)(C)C [Compound P3-101] |  |  |  | IC50 [8]: > 1 µM; IC50 [9]: 0.001 µM; IC50 [10]: 0.001 µM |
| CN[C@@H](C)C(=O)N[C@H](C(=O)N1C[C@@H](NC(=O)C2CCCC(C(=O)N[C@H]3C[C@@H](C(=O)N[C@H](C)c4ccccc4)N(C(=O)[C@@H](NC(=O)[C@H](C)NC)C(C)(C)C)C3)C2)C[C@H]1C(=O)N[C@H](C)c1ccccc1)C(C)(C)C (stereo partly shown) [Compound P3-96] |  |  |  | IC50 [8]: > 1 µM; IC50 [9]: 0.055 µM; IC50 [10]: 0.006 µM |
| CN[C@@H](C)C(=O)N[C@H](C(=O)N1C[C@@H](NC(=O)c2cc(C(=O)N[C@H]3C[C@@H](C(=O)N[C@H](C)Cc4ccccc4)N(C(=O)[C@@H](NC(=O)[C@H](C)NC)C(C)(C)C)C3)[nH]n2)C[C@H]1C(=O)N[C@H](C)Cc1ccccc1)C(C)(C)C [Compound 11] | > 1 | 0.834 | 0.545 |  |
| CN[C@@H](C)C(=O)NC(C(=O)N1CCC[C@H]1C(=O)NC1CCCc2ccccc21)c1ccc(CCc2ccc([C@H](NC(=O)[C@H](C)NC)C(=O)N3CCC[C@H]3C(=O)NC3CCCc4ccccc43)cc2)cc1 (stereo partly shown) [Compound P2-35] |  |  |  | IC50 [5]: > 1 µM; IC50 [6]: 0.007 µM; IC50 [7]: 0.007 µM |
| CN[C@@H](C)C(=O)N[C@H](C(=O)N1C[C@@H](NC(=O)c2cccc(C(=O)N[C@H]3C[C@@H](C(=O)NC4CCCc5cc(F)ccc54)N(C(=O)[C@@H](NC(=O)[C@H](C)NC)C(C)(C)C)C3)c2)C[C@H]1C(=O)NC1CCCc2cc(F)ccc21)C(C)(C)C (single isomer, unassigned) [Compound 73] |  | 0.0698 | 0.073 | IC50 [4]: > 1 µM |
| CN[C@@H](C)C(=O)N[C@H](C(=O)N1CCC[C@H]1C(=O)N[C@H](C)c1ccccc1)[C@H](C)n1cc(CCCc2cn([C@@H](C)[C@H](NC(=O)[C@H](C)NC)C(=O)N3CCC[C@H]3C(=O)N[C@H](C)c3ccccc3)nn2)nn1 [Compound 115] | > 1 | 0.057 | 0.063 |  |
| CN[C@@H](C)C(=O)N[C@@H]1CCN(C(=O)c2ccc(C(=O)N[C@H]3C[C@@H](C(=O)N[C@@H]4CCCc5ccccc54)N(C(=O)[C@@H](NC(=O)[C@H](C)NC)C(C)(C)C)C3)cc2)C1 [Compound 186] | > 1 | 0.56 | 0.55 |  |
| CN[C@@H](C)C(=O)N[C@@H](CCCCNC(=O)c1cccc(C(=O)N[C@H]2C[C@@H](C(=O)N[C@@H]3CCCc4ccccc43)N(C(=O)[C@@H](NC(=O)[C@H](C)NC)C(C)(C)C)C2)c1)C(=O)N1CCC[C@H]1C(=O)NC(c1ccccc1)c1ccccc1 [Compound 184] | > 1 | 0.027 | 0.076 |  |
| CN[C@@H](C)C(=O)NC(CCC(=O)Nc1ccc(CCc2ccc(NC(=O)CCC(NC(=O)[C@H](C)NC)C(=O)N3CCC[C@H]3C(=O)N[C@@H]3CCCc4ccccc43)cc2)cc1)C(=O)N1CCC[C@H]1C(=O)NC1CCCc2ccccc21 (stereo partly shown) [Compound P2-45] |  |  |  | IC50 [5]: > 1 µM; IC50 [6]: 0.002 µM; IC50 [7]: 0.004 µM |
| CN[C@@H](C)C(=O)N[C@@H](CC#CC#CC[C@H](NC(=O)[C@H](C)NC)C(=O)N1CCC[C@H]1CNC(=O)c1ccccn1)C(=O)N1CCC[C@H]1CNC(=O)c1ccccn1 [Compound 15] | > 1 | 0.209 | 0.235 |  |
| CN[C@@H](C)C(=O)N[C@@H](CCCCCC[C@H](NC(=O)[C@H](C)NC)C(=O)N1CCC[C@H]1CNC(=O)c1cnccn1)C(=O)N1CCC[C@H]1CNC(=O)c1cnccn1 [Compound 30] | > 1 | > 1 | > 1 |  |
| CN[C@@H](C)C(=O)N[C@H](C(=O)N1CCC[C@H]1Cn1cnnc1CCc1ccccc1)[C@@H](C)OCCCCCCO[C@H](C)[C@H](NC(=O)[C@H](C)NC)C(=O)N1CCC[C@H]1Cn1cnnc1CCc1ccccc1 [Compound 86] | > 1 | > 1 | > 1 |  |
